Assay results reported in patent publication US9988371B2, “Benzimidazole analogues and related methods” (The Arizona Board of Regents, on Behalf of the University …, priority 2014, dated 2018).
pIC50: −log10 of the molar value. Entries after “also recorded” stand apart in the source; their conditions may differ.

Key:
[1] = PK study in rats; format: in vivo
Method: (§1) For PK studies of Pz-1 in animals, a solution formulation for oral administration was created in 500 μL of polysorbate 80, 500 μL of EtOH, and 1.0 mL of pH 2 buffer. For the toxicity studies, a suspension formulation was developed in tween 20 (20%) and xanthan gum (0.125%).
(§2) T112 (3-4 hrs) in rats was in line with T1/2 in mice (4.2 hrs).

[2] = biological target: CYP3A4 (Homo sapiens, UniProt P08684); assay: CYP inhibition; format: in vitro ADME; conditions: read-out: CYP 3A4 IC50
Sequence of CYP3A4 (P08684 whole entry): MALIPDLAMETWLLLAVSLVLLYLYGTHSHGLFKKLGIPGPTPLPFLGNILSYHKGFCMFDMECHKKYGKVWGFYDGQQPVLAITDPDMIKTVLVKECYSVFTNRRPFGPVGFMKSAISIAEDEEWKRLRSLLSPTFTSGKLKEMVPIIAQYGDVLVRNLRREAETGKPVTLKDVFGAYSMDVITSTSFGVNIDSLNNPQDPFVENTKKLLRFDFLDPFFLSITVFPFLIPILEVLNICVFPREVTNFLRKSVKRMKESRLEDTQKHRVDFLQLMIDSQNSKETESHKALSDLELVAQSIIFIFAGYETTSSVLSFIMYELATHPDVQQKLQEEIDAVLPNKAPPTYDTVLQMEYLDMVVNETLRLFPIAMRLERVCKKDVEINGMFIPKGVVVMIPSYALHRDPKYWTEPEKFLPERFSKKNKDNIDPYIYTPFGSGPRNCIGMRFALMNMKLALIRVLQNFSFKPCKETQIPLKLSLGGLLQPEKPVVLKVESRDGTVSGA

[3] = week-long toxicology study in mice; format: in vivo
Method: as §1
Similarly, the toxicity markers including phosphorus, creatinine, total bilirubin, GGT, ALP, glucose, total protein, albumin, globulin, calcium, cholesterol, and BUN were not impacted at any dose. […] At the highest dose, the concentration of ALT was slightly above the normal ALT level of 80 U/L, but below the toxicity threshold of 200 U/L. ALT levels can easily be monitored and can serve as a reversible toxicity marker in the clinical setting.

[4] = PK study in mice; format: in vivo; conditions: for half-life: mouse, in vivo
Method: as §1, §2

[5] = test system: RET (RET/C634Y, RET/M918T, RET/C634W, RET/PTC1, RET/PTC3, KIF5B-RET, RET/C634R-V804M); assay: RET auto-phosphorylation immunoblot, all cell lines and mutations tested; format: cell-based
Method: FIG. 1: Photographs of blots showing inhibition of phosphorylation of RET/C634Y and RET/M918T in intact cells by Pz-1 or vehicle (NT: not treated). Serum-starved NIH3T3 cells expressing RET/C634Y or RET/M918T mutants were treated for 2 hr with indicated concentrations of Pz-1. 50 μg of total cell lysates were subjected to immunoblotting with anti-phospho-Y1062 (αp1062) or anti-phospho-Y905 (αp905) RET antibodies. The blots were normalized using anti-RET (αRET) antibodies.
FIG. 2: Photographs of blots showing inhibition of phosphorylation of gate-keeper RET point mutant and rearranged RET oncoproteins by Pz-1 or vehicle (NT: not treated). HEK293 cells were transiently transfected with vectors expressing RET/C634R-V804M mutant (V804 is the gate-keeper RET residue), or RET/PTC1 (CCDC6-RET, found in papillary thyroid carcinoma and lung adenocarcinoma), RET/PTC3 (NCOA4-RET, found in papillary thyroid carcinoma and lung adenocarcinoma), or KIF5B-RET (found in lung adenocarcinoma). After 36 hr from transfection, cells were serum-starved for 12 hr and then treated for 2 hr with indicated concentrations of Pz-1. 50 μg of total cell lysates were subjected to immunoblotting with anti-phospho-Y1062 (αp1062) and anti-phospho-Y905 (αp905) RET antibodies. The blots were normalized using anti-RET (αRET) antibody.
FIG. 3: Photographs of blots showing inhibition of RET protein endogenously expressed in TT cells (human MTC cell line expressing RET/C634W) by indicated concentrations of Pz-1 or vehicle (NT: not treated) and reduced effects in thyroid non-transformed Nthy-ori-3-1 cells. […]
The inhibition of RET auto-phosphorylation by Pz-1 was measured in several different cell lines including NIH3T3 fibroblasts expressing RET/C634Y or RET/M918T, TT expressing RET/C634W (MTC), Nthy-ory-3-1 (thyroid, non-transformed with RET; negative control), HEK293/RET/PTC1 (CCDC6-RET that can be found in PTC & lung cancer), HEK293/RET-KIF5B (that can be found in lung cancer), HEK293/RET/PTC3 (NCOA4-RET, that can be found in PTC & lung cancer), and HEK293 transfected with RET/C634R-V804M (FIGS. 1-3). […]

Which T112 [1] does the source give for `Cn1cc(-c2ccc3c(c2)ncn3-c2ccc(CC(=O)Nc3cc(C(C)(C)C)on3)cc2)cn1` [Pz-1, N-(5-(tert-butyl)isoxazol-3-yl)-2-(4-(5-(1-methyl-1H-pyrazol-4-yl)-1H-benzo[d]imidazol-1-yl)phenyl)acetamide] here?
The T112 was 3 to 4 h.

What about the volume distribution [1] of the same compound?
The volume distribution was 2.02 L/kg.

What about the AUC ([1]; 1 mg/kg (IV)) of the same compound?
The AUC was 1.9 µg/h/mL.

And the AUC ([1]; 10 mg/kg (oral))?
Its AUC is 19 µg/h/mL.

And the bioavaliblity ([1]; oral)?
The bioavaliblity was 97%.

And the half-life ([1]; rat, in vivo, 10 mg/kg, oral study, read-out: elimination half-life (converted))?
The half-life was 4.2 h.

What about the clearance ([1]; rat, in vivo, oral, 10 mg/kg) of the same compound?
The clearance was 9 mL/min/kg.

What about the pIC50 [2] of the same compound?
Its pIC50 is 5.13.

And the ALT in blood ([3]; 10 mg/kg)?
The ALT in blood was 22 U/L.

And the ALT in blood ([3]; 30 mg/kg)?
Its ALT in blood is 51 U/L.

What about the ALT in blood ([3]; 100 mg/kg) of the same compound?
The ALT in blood was 96 U/L.

What about the “toxicity markers (phosphorus, creatinine, total bilirubin, GGT, ALP, glucose, total protein, albumin, globulin, calcium, cholesterol, BUN)” value ([3]; any dose) of the same compound?
The value was “not impacted”.

What about the “organ pathological analysis in heart, kidney, and liver” value ([3]; even at 100 mg/kg) of the same compound?
Its value is “did not show adverse effects”.

What about the toxicity ([3]; one week, daily dose escalation from 10 mg/kg to 100 mg/kg, suspension formulation) of the same compound?
Its toxicity is “no significant toxicity”.

And the AUC ([4]; 2 mg/kg, solution formulation)?
Its AUC is 6.5 µg/h/mL.

What about the half-life ([4]; oral, read-out: T1/2 (converted)) of the same compound?
Its half-life is 4.2 h.

What about the half-life ([4]; po, 2 mg/kg, read-out: elimination half-life (converted)) of the same compound?
The half-life was 3.8 h.

What about the “inhibition of pRET” value ([5]; 1 nM, 2 hrs, all cell-lines) of the same compound?
The value was “strong inhibition; also recorded: strongly inhibited”.

What about the “concentration at which potent on RET and all tested RET mutants including RET/V804M” value ([5]; FIGS. 1-3) of the same compound?
Its value is “less than 1 nM”.

What about the “inhibition of RET auto-phosphorylation” value ([5]; nanomolar concentrations, all cell lines and mutations tested) of the same compound?
Its value is 90%.
